Results published in patent publication US20130039928A1, “COMPOSITIONS AND METHODS FOR REVERSING CORTICOSTEROID RESISTANCE OR TREATING RESPIRATORY INFECTIONS” (priority 2010, published 2013).

Assays:
[1] = system: nontypeable Haemophilus influenzae; conditions: COPD alveolar macrophages, compared to vehicle
Method: Human alveolar macrophages were purified from individual BAL samples by centrifugation and seeded onto 6-well tissue culture plates. After incubation for 2 h, non-adherent cells were removed and the adherent cells were incubated with R, S-sulforaphane (5 μM; LKT Laboratories, Inc., St. Paul, Minn.) and or DMSO in RPMI 1640 culture medium with 10% FBS and 1% penicillin-streptomycin (Invitrogen, Carlsbad, Calif.). After 16-20 h, adherent cells were scraped, suspended in RPMI 1640 culture media and plated onto 96-well tissue culture plates for bacterial phagocytosis and clearance assays. […] For MARCO antibody-depletion, alveolar macrophages were incubated with human anti-MARCO antibody (1 μg/ml; (Hycult, Uden, The Netherlands) for 4 hours prior to bacterial challenge.
Sputum isolates of nontypeable H. influenzae and P. aeruginosa obtained from patients with COPD at the Department of Veterans Affairs, Western New York Healthcare System were used (S. Sethi, N. Evans, B. J. Grant, T. F. Murphy, N Engl J Med 347, 465 (Aug. 15, 2002); C. S. Berenson, M. A. Garlipp, L. J. Grove, J. Maloney, S. Sethi, J Infect Dis 194, 1375 (Nov. 15, 2006); T. F. Murphy et al., Am J Respir Crit Care Med 177, 853 (Apr. 15, 2008); T. F. Murphy, A. L. Brauer, A. T. Schiffmacher, S. Sethi, Am J Respir Crit Care Med 170, 266 (Aug. 1, 2004)). […]
Bacterial phagocytosis was quantified using a flow cytometry analysis.

Pseudomonas aeruginosa = conditions: THP-1 macrophages, 10 μM for 24 hours
Method: To determine intracellular killing, macrophages were treated with vehicle (DMSO) or sulforaphane (10 μM) for 24 hours. Cells were then washed and the medium was replaced with serum-free medium. After the medium replacement, approximately 10^5 CFUs of PA were added to each well. After 1 h, the medium was removed and cells were washed, and the gentamicin-containing medium was added to kill bound, unphagocytosed bacteria. Cells were lysed at the indicated time points, and lysates were plated to determine viable intracellular bacteria.

HDAC2 [2] = type: cell-based, human
Method: For inducing corticosteroid resistance, PMs were exposed to cigarette smoke condensate (CSC, 100 μg/ml; Murty Pharmaceuticals, Lexington, Ky.) for 16 h. Exposure to S-nitrosoglutathione (GSNO, 10 μM) was limited to 4 h. […] For assessing corticosteroid responsiveness, macrophages were incubated with dexamethasone (1 μM, Sigma) for 1 h followed by LPS (100 ng/ml, Sigma) for additional 4 h.
(§1) HDAC activity was measured using a fluorescent derivative of ε-acetyl-lysine from Enzo life sciences (Farmingdale, N.Y.) according to the manufacturer's recommendations. HDAC2 was immunoprecipitated for analysis of enzymatic activity.
Macrophage cell or lung tissue extracts were prepared by using 100 μL of immunoprecipitation buffer (50 mM Tris-HCl, pH 8.0, 150 mM NaCl, 1.0% Triton X-100, 0.5% NP-40, 0.1% SDS, 0.5% deoxycholate, and complete protease inhibitor cocktail) from Roche (Morristown, N.J.). The lysis mixture was incubated on ice for 15 minutes and microcentrifuged for 10 minutes at 4° C. Extracts were precleared with 20 μL protein A/G sepharose beads (a 50:50 mix) from Thermo scientific (Rockford, Ill.) and 2 μg of normal IgG. After microcentrifugation, 20 μL of protein A/G sepharose conjugated with 5 μg of antibody was used to precipitate HDAC2 (Santa Cruz Biotechnology, Santa Cruz, Calif.) overnight at 4° C. with rotation. The immune complexes were pelleted with gentle centrifugation, washed twice with 1 mL of immunoprecipitation buffer, and divided equally for the final wash for the activity assay and immunoblotting. For the HDAC assay, immunoprecipitates were resuspended in the activity assay buffer (50 mM TrisHCl, pH 8.0; 10% glycerol; 1 mM dithiothreitol; 0.1 mM EDTA, complete protease inhibitor cocktail). For HDAC2-specific western blotting, immune complexes were washed three times with the immunoprecipitation buffer and finally resuspended in Laemmli buffer for the SDS-PAGE.

HDAC2 [3] = system: HDAC2
Method: Whether sulforaphane increase HDAC2 activity in lungs of cigarette smoke exposed mice was determined.
Mice (C57BL/6 strain, 8-10 weeks old) were used for the studies. Exposure to CS (1 month) was carried out as described previously (Malhotra, D., et al., Am J Respir Crit Care Med 178, 592-604 (2008)). Residential peritoneal macrophages (PMs) isolation was carried out as described previously (Singh, A., et al., PLoS Med 3, e420 (2006)). Alveolar macrophages from mouse were isolated from bronchoalveolar lavage (BAL) fluid (Crimi, E., et al., Free Radic Biol Med 40, 398-406 (2006)).
as §1

C[S+]([O-])CCCCN=C=S (stereo not drawn) [sulforaphane]
phagocytosis of FITC-labeled nontypeable Haemophilus influenzae [1]: significantly enhanced phagocytosis | kinetics of intracellular killing (Pseudomonas aeruginosa): moderate increase in the kinetics of intracellular killing | enzymatic activity of HDAC2 (HDAC2 [2]; COPD alveolar macrophages, P<0.01 versus vehicle): approximately 2 fold | HDAC2 activity (HDAC2 [2]; in the presence of BSO): failed to increase HDAC2 activity | HDAC2 enzymatic activity (HDAC2 [2]; treatment after GSNO exposure of alveolar macrophages): significantly increased HDAC2 activity | levels of SNO-HDAC2 in lungs (HDAC2 [3]; CS-exposed mice): reduced the levels of SNO-HDAC2 | GSH levels in lungs (HDAC2 [3]; cigarette smoke-exposed mice): increased GSH levels | HDAC2 enzymatic activity in lungs (HDAC2 [3]; cigarette smoke-exposed mice): significant increase | HDAC2 protein in lungs (HDAC2 [3]; cigarette smoke-exposed mice): significant increase | total HDAC enzymatic activity in lungs (HDAC2 [3]; cigarette smoke-exposed mice): significant increase | secretory levels of active MMP9 (MMP9): significantly reduced | levels of S-nitrosylated MMP9 (MMP9; biotin-switch assay): significantly reduced
